# PMC8296573, “Synthesis and Biological Evaluation of Fingolimod Derivatives as Antibacterial Agents” (ACS Omega, 2021)
# Read-outs that look alike come from different tables or passages of the source.
# Legend:
# S. aureus ATCC 25923 [1] = test: Antibacterial activity, post-exposure on preformed 18-h-old biofilms; assay type: cell-based, Staphylococcus aureus; settings: ± SD; for inhibition at 25 µM / inhibition at 50 µM / inhibition at 100 µM / inhibition at 200 µM: Staphylococcus aureus; for inhibition at 25 µM: ATCC25923, 25 µM; for inhibition at 50 µM: ATCC25923, 50 µM; for inhibition at 100 µM: ATCC25923, 100 µM; for inhibition at 200 µM: ATCC25923, 200 µM
# How it was run: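 Biofilms grown 18 h without compound, medium then replaced and compound added for a further 24 h. Planktonic OD and resazurin (20 μM final) fluorescence (ex 560/em 590 nm) read; washed biofilms stained with 20 μM resazurin 30 min at 37 °C, then ethanol-fixed and crystal violet-stained, absorbance 595 nm.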
# P. aeruginosa ATCC 9027 = test: Antibacterial activity, pre-exposure; assay type: cell-based, Pseudomonas aeruginosa; settings: for Average inhibition %, biofilms viability / Average inhibition %, planktonic cells viability / inhibition at 50 µM / inhibition at 100 µM / inhibition at 150 µM / inhibition at 200 µM: P. aeruginosa ATCC 9027, pre-exposure, ± SD; for inhibition at 50 µM / inhibition at 100 µM / inhibition at 150 µM / inhibition at 200 µM: Pseudomonas aeruginosa, ATCC9027
# How it was run: (§1)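 Growth prevention was tested by adding compounds together with the inoculum. Plates were incubated 18 h at 37 °C. Viability was read by resazurin fluorescence and biomass by crystal violet absorbance at 595 nm.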
# S. aureus ATCC 25923 [2] = test: Antibacterial activity, pre-exposure (planktonic cells and biofilm formation); assay type: cell-based, Staphylococcus aureus; settings: for MIC / inhibition at 5 µM / inhibition at 10 µM / inhibition at 15 µM / inhibition at 25 µM: Staphylococcus aureus, ATCC25923; for inhibition at 5 µM / inhibition at 10 µM / inhibition at 15 µM / inhibition at 25 µM / Average inhibition %, biofilms viability / Average inhibition %, planktonic cells viability: pre-exposure, ± SD
# How it was run: as §1
# A. baumannii NCTC 13423 = test: Antibacterial activity, pre-exposure; assay type: cell-based, Acinetobacter baumannii; settings: for Average inhibition %, biofilms viability / Average inhibition %, planktonic cells viability / inhibition at 10 µM / inhibition at 15 µM / inhibition at 25 µM / inhibition at 50 µM: A. baumannii NCTC 13423, pre-exposure, ± SD; for inhibition at 10 µM / inhibition at 15 µM / inhibition at 25 µM / inhibition at 50 µM: Acinetobacter baumannii, NCTC13423
# How it was run: as §1
# [3] = read-out: Average inhibition %, biofilms biomass
# [4] = read-out: Average inhibition %, planktonic cells turbidity
# [5] = 50 µM, read-out: Average inhibition %, biofilms biomass
# [6] = 50 µM, read-out: Average inhibition %, planktonic cells turbidity
# [7] = 10 µM, read-out: Average inhibition %, biofilms biomass
# [8] = 10 µM, read-out: Average inhibition %, planktonic cells turbidity
# [9] = 15 µM, read-out: Average inhibition %, biofilms biomass
# [10] = 15 µM, read-out: Average inhibition %, planktonic cells turbidity
# [11] = 25 µM, read-out: Average inhibition %, biofilms biomass
# [12] = 25 µM, read-out: Average inhibition %, planktonic cells turbidity
smiles,measurement,setting,value
"CCCCCCCCCCc1ccc(CCC(N)(CO)CO)cc1 [Compound 11, 2-Amino-2-(4-decylphenethyl)propane-1,3-diol]","Average inhibition %, biofilms viability",S. aureus ATCC 25923 [1]; 25 µM,10.2 ± 8.5%
same,"Average inhibition %, planktonic cells viability",S. aureus ATCC 25923 [1]; 25 µM,0 ± 0%
same,"Average inhibition %, biofilms viability",S. aureus ATCC 25923 [1]; 50 µM,17.5 ± 9%
same,"Average inhibition %, planktonic cells viability",S. aureus ATCC 25923 [1]; 50 µM,0 ± 0%
same,"Average inhibition %, biofilms viability",S. aureus ATCC 25923 [1]; 100 µM,24.8 ± 10.2%
same,"Average inhibition %, planktonic cells viability",S. aureus ATCC 25923 [1]; 100 µM,6 ± 10.4%
same,"Average inhibition %, biofilms viability",S. aureus ATCC 25923 [1]; 200 µM,25.8 ± 8.3%
same,"Average inhibition %, planktonic cells viability",S. aureus ATCC 25923 [1]; 200 µM,30.5 ± 9.5%
same,inhibition at 25 µM,S. aureus ATCC 25923 [1]; [3],32.6 ± 5.1%
same,inhibition at 25 µM,S. aureus ATCC 25923 [1]; [4],8.9 ± 8.2%
same,inhibition at 50 µM,S. aureus ATCC 25923 [1]; [3],35.4 ± 2.7%
same,inhibition at 50 µM,S. aureus ATCC 25923 [1]; [4],14 ± 4.2%
same,inhibition at 100 µM,S. aureus ATCC 25923 [1]; [3],48.9 ± 4.7%
same,inhibition at 100 µM,S. aureus ATCC 25923 [1]; [4],16.2 ± 8.6%
same,inhibition at 200 µM,S. aureus ATCC 25923 [1]; [3],47.6 ± 7.1%
same,inhibition at 200 µM,S. aureus ATCC 25923 [1]; [4],22.2 ± 12.7%
same,"Average inhibition %, biofilms viability",P. aeruginosa ATCC 9027; 50 µM,0 ± 0%
same,"Average inhibition %, planktonic cells viability",P. aeruginosa ATCC 9027; 50 µM,26.2 ± 4.1%
same,"Average inhibition %, biofilms viability",P. aeruginosa ATCC 9027; 100 µM,0 ± 0%
same,"Average inhibition %, planktonic cells viability",P. aeruginosa ATCC 9027; 100 µM,6.4 ± 11.1%
same,"Average inhibition %, biofilms viability",P. aeruginosa ATCC 9027; 150 µM,0 ± 0%
same,"Average inhibition %, planktonic cells viability",P. aeruginosa ATCC 9027; 150 µM,10.3 ± 9.3%
same,"Average inhibition %, biofilms viability",P. aeruginosa ATCC 9027; 200 µM,0 ± 0%
same,"Average inhibition %, planktonic cells viability",P. aeruginosa ATCC 9027; 200 µM,1.2 ± 2%
same,inhibition at 50 µM,P. aeruginosa ATCC 9027; [5],8.3 ± 5.9%
same,inhibition at 50 µM,P. aeruginosa ATCC 9027; [6],22.2 ± 20.1%
same,inhibition at 100 µM,"P. aeruginosa ATCC 9027; 100 µM, read-out: Average inhibition %, biofilms biomass",13 ± 13.3%
same,inhibition at 100 µM,"P. aeruginosa ATCC 9027; 100 µM, read-out: Average inhibition %, planktonic cells turbidity",20.4 ± 17.1%
same,inhibition at 150 µM,"P. aeruginosa ATCC 9027; 150 µM, read-out: Average inhibition %, biofilms biomass",12.1 ± 11.1%
same,inhibition at 150 µM,"P. aeruginosa ATCC 9027; 150 µM, read-out: Average inhibition %, planktonic cells turbidity",7.6 ± 5.1%
same,inhibition at 200 µM,"P. aeruginosa ATCC 9027; 200 µM, read-out: Average inhibition %, biofilms biomass",3.1 ± 4.2%
same,inhibition at 200 µM,"P. aeruginosa ATCC 9027; 200 µM, read-out: Average inhibition %, planktonic cells turbidity",13.4 ± 11.7%
same,MIC P. aeruginosa ATCC 9027,"P. aeruginosa ATCC 9027; pre-exposure, Inactive = no activity up to 200 μM, > = some inhibition but no MIC reached",Inactive
same,Initial screening result (active = at least 60% inhibition of planktonic cells and biofilm formation),"S. aureus ATCC 25923 [2]; 50 μM, S. aureus",active
same,MIC,"S. aureus ATCC 25923 [2]; lowest concentration with no visible growth (>90% inhibition of turbidity and viability of planktonic cells), 18 h, read-out: MIC S. aureus ATCC 25923",10 to 15 µM
same,inhibition at 5 µM,"S. aureus ATCC 25923 [2]; 5 µM, read-out: Average inhibition %, biofilms biomass",40.1 ± 36.6%
same,inhibition at 5 µM,"S. aureus ATCC 25923 [2]; 5 µM, read-out: Average inhibition %, planktonic cells turbidity",12.5 ± 12.4%
same,inhibition at 10 µM,S. aureus ATCC 25923 [2]; [7],75.6 ± 20.8%
same,inhibition at 10 µM,S. aureus ATCC 25923 [2]; [8],70.4 ± 40%
same,inhibition at 15 µM,S. aureus ATCC 25923 [2]; [9],87.1 ± 9.9%
same,inhibition at 15 µM,S. aureus ATCC 25923 [2]; [10],97.5 ± 1.9%
same,inhibition at 25 µM,S. aureus ATCC 25923 [2]; [11],89 ± 0.7%
same,inhibition at 25 µM,S. aureus ATCC 25923 [2]; [12],97.9 ± 1.2%
same,MIC,S. aureus ATCC 25923 [2]; read-out: MIC (S. aureus),10 to 15 µM
same,"Average inhibition %, biofilms viability",S. aureus ATCC 25923 [2]; 5 µM,41.8 ± 9.7%
same,"Average inhibition %, planktonic cells viability",S. aureus ATCC 25923 [2]; 5 µM,17 ± 23.3%
same,"Average inhibition %, biofilms viability",S. aureus ATCC 25923 [2]; 10 µM,72.2 ± 23.8%
same,"Average inhibition %, planktonic cells viability",S. aureus ATCC 25923 [2]; 10 µM,73.3 ± 34.2%
same,"Average inhibition %, biofilms viability",S. aureus ATCC 25923 [2]; 15 µM,84.9 ± 24.9%
same,"Average inhibition %, planktonic cells viability",S. aureus ATCC 25923 [2]; 15 µM,98.5 ± 1.7%
same,"Average inhibition %, biofilms viability",S. aureus ATCC 25923 [2]; 25 µM,93.8 ± 10.1%
same,"Average inhibition %, planktonic cells viability",S. aureus ATCC 25923 [2]; 25 µM,99.2 ± 1.3%
same,"Average inhibition %, biofilms viability",A. baumannii NCTC 13423; 10 µM,0 ± 0%
same,"Average inhibition %, planktonic cells viability",A. baumannii NCTC 13423; 10 µM,11.8 ± 6%
same,"Average inhibition %, biofilms viability",A. baumannii NCTC 13423; 15 µM,0.8 ± 1.4%
same,"Average inhibition %, planktonic cells viability",A. baumannii NCTC 13423; 15 µM,13.2 ± 6.7%
same,"Average inhibition %, biofilms viability",A. baumannii NCTC 13423; 25 µM,3.6 ± 5.6%
same,"Average inhibition %, planktonic cells viability",A. baumannii NCTC 13423; 25 µM,10.3 ± 9%
same,"Average inhibition %, biofilms viability",A. baumannii NCTC 13423; 50 µM,21.4 ± 1.1%
same,"Average inhibition %, planktonic cells viability",A. baumannii NCTC 13423; 50 µM,0.1 ± 0.1%
same,inhibition at 10 µM,A. baumannii NCTC 13423; [7],5.1 ± 8.9%
same,inhibition at 10 µM,A. baumannii NCTC 13423; [8],0%
same,inhibition at 15 µM,A. baumannii NCTC 13423; [9],0%
same,inhibition at 15 µM,A. baumannii NCTC 13423; [10],0%
same,inhibition at 25 µM,A. baumannii NCTC 13423; [11],5.1 ± 4.6%
same,inhibition at 25 µM,A. baumannii NCTC 13423; [12],0%
same,inhibition at 50 µM,A. baumannii NCTC 13423; [5],15.9 ± 13.8%
same,inhibition at 50 µM,A. baumannii NCTC 13423; [6],0%
same,MIC A. baumannii NCTC 13423,"A. baumannii NCTC 13423; pre-exposure, Inactive = no activity up to 50 μM, > = some inhibition but no MIC reached",Inactive ^d
